{"source": "ChEMBL document CHEMBL1201862", "about": "“PubChem BioAssay data set” (2004)", "key": {"[1]": {"target": "T1, Carboxy-terminal domain RNA polymerase II polypeptide A small phosphatase 1 (Homo sapiens, UniProt Q9GZU7)", "T1 sequence (Q9GZU7 whole entry)": "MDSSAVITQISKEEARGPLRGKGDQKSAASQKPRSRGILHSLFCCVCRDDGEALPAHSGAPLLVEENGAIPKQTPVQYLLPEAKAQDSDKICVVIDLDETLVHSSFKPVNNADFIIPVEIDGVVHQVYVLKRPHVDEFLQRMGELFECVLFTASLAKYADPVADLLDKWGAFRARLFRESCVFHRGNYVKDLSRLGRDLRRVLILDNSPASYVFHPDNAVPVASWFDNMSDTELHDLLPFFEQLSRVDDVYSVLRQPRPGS", "assay": "inhibitors of CTDSP1, concentration-response testing, biochemical assay, absorbance-based, actives from ultra-high-throughput screening (AID 540297)", "assay_type": "functional"}, "[2]": {"target": "SWI/SNF-related matrix-associated actin-dependent regulator of chromatin subfamily A member 2 (Homo sapiens, UniProt P51531)", "sequence (P51531 whole entry)": "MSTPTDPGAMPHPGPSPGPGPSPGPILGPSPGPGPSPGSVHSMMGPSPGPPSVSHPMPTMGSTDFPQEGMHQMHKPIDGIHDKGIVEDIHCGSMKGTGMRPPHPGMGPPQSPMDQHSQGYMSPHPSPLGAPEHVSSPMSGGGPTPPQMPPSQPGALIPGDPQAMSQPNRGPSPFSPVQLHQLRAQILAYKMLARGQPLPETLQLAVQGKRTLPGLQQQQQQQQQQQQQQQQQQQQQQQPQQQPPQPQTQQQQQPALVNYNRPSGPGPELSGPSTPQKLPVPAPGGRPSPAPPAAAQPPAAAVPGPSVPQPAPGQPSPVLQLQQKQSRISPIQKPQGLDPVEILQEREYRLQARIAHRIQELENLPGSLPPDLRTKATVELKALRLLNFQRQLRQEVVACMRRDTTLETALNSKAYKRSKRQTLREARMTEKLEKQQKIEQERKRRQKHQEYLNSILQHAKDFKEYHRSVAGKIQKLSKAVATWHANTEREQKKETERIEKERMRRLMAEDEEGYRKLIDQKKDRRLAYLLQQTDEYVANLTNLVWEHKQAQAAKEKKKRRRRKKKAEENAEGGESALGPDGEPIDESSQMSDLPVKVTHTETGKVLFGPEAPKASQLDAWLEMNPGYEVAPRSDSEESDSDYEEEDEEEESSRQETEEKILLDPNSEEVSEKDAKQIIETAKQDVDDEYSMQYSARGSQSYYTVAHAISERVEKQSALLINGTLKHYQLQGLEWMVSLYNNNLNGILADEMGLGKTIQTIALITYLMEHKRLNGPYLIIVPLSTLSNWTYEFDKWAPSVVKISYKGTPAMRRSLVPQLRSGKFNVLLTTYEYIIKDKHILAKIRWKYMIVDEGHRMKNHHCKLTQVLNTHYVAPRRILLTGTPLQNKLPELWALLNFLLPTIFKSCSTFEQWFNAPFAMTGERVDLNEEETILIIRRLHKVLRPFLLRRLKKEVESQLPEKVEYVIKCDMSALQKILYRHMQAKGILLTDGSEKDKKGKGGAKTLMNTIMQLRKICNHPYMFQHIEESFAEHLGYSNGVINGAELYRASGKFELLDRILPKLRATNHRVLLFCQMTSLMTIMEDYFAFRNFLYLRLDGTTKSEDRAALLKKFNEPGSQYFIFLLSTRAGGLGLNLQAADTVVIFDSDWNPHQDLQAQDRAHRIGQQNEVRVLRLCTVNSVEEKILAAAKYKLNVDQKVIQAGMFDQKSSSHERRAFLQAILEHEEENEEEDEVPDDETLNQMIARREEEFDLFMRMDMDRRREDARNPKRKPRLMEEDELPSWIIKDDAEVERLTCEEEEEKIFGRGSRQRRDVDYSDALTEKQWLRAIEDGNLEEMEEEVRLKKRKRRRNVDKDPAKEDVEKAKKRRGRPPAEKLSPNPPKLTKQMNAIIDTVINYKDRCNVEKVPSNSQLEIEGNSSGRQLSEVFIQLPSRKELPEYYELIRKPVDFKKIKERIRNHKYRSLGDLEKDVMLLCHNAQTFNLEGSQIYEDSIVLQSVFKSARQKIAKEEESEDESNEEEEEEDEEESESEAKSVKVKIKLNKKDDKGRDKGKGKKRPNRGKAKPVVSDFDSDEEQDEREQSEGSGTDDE", "assay": "Luminescence-based cell-based high throughput dose response assay to identify activators of the function of SWI/SNF related, matrix associated, actin dependent regulator of chromatin, subfamily a, member 2 (SMARCA2, BRM).", "assay_type": "functional"}, "[3]": {"assay": "Counterscreen for activators of the function of SWI/SNF related, matrix associated, actin dependent regulator of chromatin, subfamily a, member 2 (SMARCA2, BRM): Luminescence-based cell-based high throughput dose response assay to identify non-selective compounds using the VP16 reporter assay.", "assay_type": "functional"}, "[4]": {"target": "T2, Caspase-6 (Homo sapiens, UniProt P55212)", "T2 sequence (P55212 whole entry)": "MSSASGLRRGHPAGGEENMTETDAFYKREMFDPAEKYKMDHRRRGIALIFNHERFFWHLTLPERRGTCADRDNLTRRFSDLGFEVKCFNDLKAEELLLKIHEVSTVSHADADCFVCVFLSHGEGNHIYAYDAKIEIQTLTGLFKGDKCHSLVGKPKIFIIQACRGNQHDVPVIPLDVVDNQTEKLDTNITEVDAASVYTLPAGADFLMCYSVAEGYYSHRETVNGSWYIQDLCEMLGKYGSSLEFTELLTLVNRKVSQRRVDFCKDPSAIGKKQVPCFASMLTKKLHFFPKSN", "assay": "human caspase-6 inhibitors, dose response, biochemical, VEID-R110 fluorescence, cherry-pick (AID 720632)"}, "[5]": {"target": "ELAV-like protein 1 (Homo sapiens, UniProt Q15717)", "sequence (Q15717 whole entry)": "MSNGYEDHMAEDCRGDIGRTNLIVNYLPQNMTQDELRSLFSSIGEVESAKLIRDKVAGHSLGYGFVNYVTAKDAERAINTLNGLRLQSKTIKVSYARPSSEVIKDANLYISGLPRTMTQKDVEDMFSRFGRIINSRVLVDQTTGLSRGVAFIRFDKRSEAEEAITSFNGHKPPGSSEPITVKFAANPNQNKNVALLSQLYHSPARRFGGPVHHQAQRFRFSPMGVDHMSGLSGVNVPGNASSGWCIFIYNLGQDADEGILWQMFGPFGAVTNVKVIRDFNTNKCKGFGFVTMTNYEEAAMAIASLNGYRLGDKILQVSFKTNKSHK", "assay": "Identify HuR specific inhibitors.", "assay_type": "functional"}, "[6]": {"assay": "TRPM1 promoter luciferase reporter signal decrease, dose response, MITF inhibitor project, cell-based, SK-MEL-5, dry powder, set 9 (AID 651588)", "assay_type": "functional"}, "[7]": {"assay": "MITF Orthogonal Assay: MALME3 CTG Assay Measured in Cell-Based System Using Plate Reader - 2084-04_Inhibitor_Dose_DryPowder_Activity_Set6.", "assay_type": "functional", "conditions": "MALME-3"}, "[8]": {"assay": "SK-MEL-5 parental cell viability reduction, dose response, orthogonal assay for MITF inhibitor project, CellTiter-Glo luminescence, dry powder, set 8 (AID 651586)", "assay_type": "functional, cell-based"}, "[9]": {"assay": "MALME3 melanoma cell viability reduction, dose response, orthogonal assay for MITF inhibitor project, CellTiter-Glo luminescence, dry powder, set 5 (AID 651584)", "assay_type": "functional, cell-based", "conditions": "MALME-3"}, "[10]": {"assay": "MITF Orthogonal Assay: SK-MEL-5 CTG Assay Measured in Cell-Based System Using Plate Reader - 2084-02_Inhibitor_Dose_DryPowder_Activity_Set7.", "assay_type": "functional"}, "[11]": {"assay": "MITF: Counter assay: A375 proliferation Measured in Cell-Based System Using Plate Reader - 2084-03_Inhibitor_Dose_DryPowder_Activity_Set8.", "assay_type": "functional", "conditions": "A-375"}, "[12]": {"assay": "A375 melanoma cell viability loss, dose response, counter-screen for MITF modulator project, CellTiter-Glo luminescence, dry powder, set 9 (AID 651591)", "assay_type": "functional, cell-based", "conditions": "A-375"}, "[13]": {"assay": "TRPM1 promoter luciferase reporter signal decrease, dose response, MITF inhibitor project, cell-based, SK-MEL-5, dry powder, set 8 (AID 624430)", "assay_type": "functional"}, "[14]": {"assay": "Luminescence Cell-Based Dose Response HTS to Identify Activators of Luciferase Translation or Activity in H4 […] Cells. [Related pubchem assays: 1829 (Project Summary), 1814 (Primary HTS)]", "assay_type": "functional"}, "[15]": {"assay": "Luminescence-based cell-based high throughput dose response assay to identify activators of the DAF-12 from the parasite S. stercoralis (ssDAF-12).", "assay_type": "functional"}, "[16]": {"target": "T3, Oxysterols receptor LXR-beta (Homo sapiens, UniProt P55055)", "T3 sequence (P55055 whole entry)": "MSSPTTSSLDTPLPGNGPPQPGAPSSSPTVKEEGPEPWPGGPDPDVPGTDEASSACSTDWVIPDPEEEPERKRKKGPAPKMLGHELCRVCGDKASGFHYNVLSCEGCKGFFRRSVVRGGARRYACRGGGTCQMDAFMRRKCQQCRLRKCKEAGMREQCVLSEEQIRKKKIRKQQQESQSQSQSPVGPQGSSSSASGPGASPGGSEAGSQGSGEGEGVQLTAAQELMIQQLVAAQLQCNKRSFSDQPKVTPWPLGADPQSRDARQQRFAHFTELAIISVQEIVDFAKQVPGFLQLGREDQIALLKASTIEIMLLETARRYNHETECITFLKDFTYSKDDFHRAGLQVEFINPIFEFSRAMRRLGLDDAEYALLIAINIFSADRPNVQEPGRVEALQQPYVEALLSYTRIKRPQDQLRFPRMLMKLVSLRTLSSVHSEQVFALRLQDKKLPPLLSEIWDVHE", "assay": "LXR agonists, Gal4 luciferase reporter, dose response, counter-screen for ssDAF-12 agonist project, cell-based, luminescence, HEK293, S. stercoralis campaign (AID 720737)", "assay_type": "functional", "conditions": "read-out: IC50 (the source's name)"}, "[17]": {"target": "Kallikrein-7 (Homo sapiens, UniProt P49862)", "sequence (P49862 whole entry)": "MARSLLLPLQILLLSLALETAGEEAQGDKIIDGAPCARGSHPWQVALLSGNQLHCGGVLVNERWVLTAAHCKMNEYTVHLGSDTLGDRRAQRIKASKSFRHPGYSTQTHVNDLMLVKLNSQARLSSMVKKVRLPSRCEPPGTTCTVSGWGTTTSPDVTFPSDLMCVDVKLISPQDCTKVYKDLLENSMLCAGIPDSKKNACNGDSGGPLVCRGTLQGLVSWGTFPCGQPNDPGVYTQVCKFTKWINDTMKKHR", "assay": "Fluorescence Intensity-based biochemical primary high throughput dose response assay to identify activators of kallikrein-7 (K7) zymogen."}, "[18]": {"target": "Bifunctional protein GlmU (Mycobacterium tuberculosis, UniProt P9WMN3)", "sequence (P9WMN3 whole entry)": "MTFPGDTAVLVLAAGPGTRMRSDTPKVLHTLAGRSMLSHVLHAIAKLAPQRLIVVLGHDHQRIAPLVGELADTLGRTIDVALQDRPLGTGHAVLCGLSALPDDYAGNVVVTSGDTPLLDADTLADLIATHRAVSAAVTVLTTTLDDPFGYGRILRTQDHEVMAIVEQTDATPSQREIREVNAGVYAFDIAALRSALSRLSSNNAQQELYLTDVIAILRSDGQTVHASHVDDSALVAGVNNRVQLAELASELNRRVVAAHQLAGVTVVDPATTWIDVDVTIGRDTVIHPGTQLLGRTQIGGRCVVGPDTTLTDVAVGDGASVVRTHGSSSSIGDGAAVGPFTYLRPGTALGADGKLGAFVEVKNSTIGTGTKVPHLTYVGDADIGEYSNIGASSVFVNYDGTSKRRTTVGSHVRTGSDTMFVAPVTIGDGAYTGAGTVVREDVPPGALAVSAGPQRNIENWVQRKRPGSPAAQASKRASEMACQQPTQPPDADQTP", "assay": "Inhibitors of Mycobacterial Glucosamine-1-phosphate acetyl transferase (GlmU). Secondary screen.", "parameters": "species or system Mycobacterium tuberculosis H37Rv"}, "[19]": {"target": "T4, Cysteine protease ATG4B (Homo sapiens, UniProt Q9Y4P1)", "T4 sequence (Q9Y4P1 whole entry)": "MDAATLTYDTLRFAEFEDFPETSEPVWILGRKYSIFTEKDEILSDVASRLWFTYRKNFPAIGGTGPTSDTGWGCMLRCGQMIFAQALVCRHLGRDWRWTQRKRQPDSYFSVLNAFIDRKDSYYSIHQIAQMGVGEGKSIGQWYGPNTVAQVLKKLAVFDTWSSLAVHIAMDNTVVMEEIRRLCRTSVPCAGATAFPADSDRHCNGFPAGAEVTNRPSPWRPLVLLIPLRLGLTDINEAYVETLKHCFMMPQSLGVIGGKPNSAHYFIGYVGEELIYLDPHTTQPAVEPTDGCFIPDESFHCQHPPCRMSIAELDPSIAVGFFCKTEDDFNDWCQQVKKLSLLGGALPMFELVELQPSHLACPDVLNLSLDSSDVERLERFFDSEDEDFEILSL", "assay_type": "functional"}, "[20]": {"target": "Phospholipase A2 (Homo sapiens, UniProt P04054)", "sequence (P04054 whole entry)": "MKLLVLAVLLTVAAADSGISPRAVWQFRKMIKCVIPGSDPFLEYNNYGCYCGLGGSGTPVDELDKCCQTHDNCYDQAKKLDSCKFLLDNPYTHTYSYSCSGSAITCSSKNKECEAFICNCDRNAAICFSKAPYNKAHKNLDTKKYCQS", "assay_type": "functional"}, "[21]": {"target": "Paired box protein Pax-8 (Homo sapiens, UniProt Q06710)", "sequence (Q06710 whole entry)": "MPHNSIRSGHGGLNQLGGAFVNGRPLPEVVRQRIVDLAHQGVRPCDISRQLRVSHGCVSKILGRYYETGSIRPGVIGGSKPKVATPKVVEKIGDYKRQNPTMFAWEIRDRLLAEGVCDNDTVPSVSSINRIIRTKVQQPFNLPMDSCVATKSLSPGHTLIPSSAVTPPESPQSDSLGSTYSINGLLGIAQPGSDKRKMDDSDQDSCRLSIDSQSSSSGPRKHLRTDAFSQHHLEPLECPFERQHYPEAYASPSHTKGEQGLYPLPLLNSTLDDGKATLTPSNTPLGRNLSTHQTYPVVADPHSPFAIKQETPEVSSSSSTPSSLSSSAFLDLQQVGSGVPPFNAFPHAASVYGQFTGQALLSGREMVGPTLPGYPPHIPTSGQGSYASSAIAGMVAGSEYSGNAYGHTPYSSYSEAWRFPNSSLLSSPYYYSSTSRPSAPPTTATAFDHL", "assay": "inhibitors of PAX8-driven TPO luciferase reporter, dose response, RMG-I cells, cherry-pick (AID 687027)", "assay_type": "functional, cell-based"}, "[22]": {"assay": "PAX2 cell-based inhibition, dose response, selectivity assay for PAX8 inhibitor project, plate reader, dry powder samples (AID 743048);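 further: HEK293 cells carrying a WT1 promoter luciferase reporter driven by expressed Pax2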", "assay_type": "functional"}, "[23]": {"assay": "NIH:OVCAR-3 ovarian cancer cell cytotoxicity, dose response, PAX8 inhibitor project, plate reader, dry powder samples (AID 743044)", "assay_type": "functional, cell-based"}, "[24]": {"assay": "PAX5 activity inhibitors, dose response, selectivity assay for PAX8 inhibitor project, cell-based, plate reader, dry powder samples (AID 743047);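 further: potency of inhibitors that lower reporter luminescence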", "assay_type": "functional"}, "[25]": {"assay": "IGROV1 ovarian cancer cell cytotoxicity, dose response, PAX8 inhibitor project, plate reader, dry powder samples (AID 743043)", "assay_type": "functional, cell-based", "conditions": "IGROV-1"}, "[26]": {"assay": "cytotoxicity in COV434 cells, dose response, cytotoxicity control for PAX8 inhibitor project, cell-based, plate reader, dry powder, SA7 (AID 743145)", "assay_type": "functional"}, "[27]": {"assay": "cytotoxicity in OVCAR8 ovarian cancer cells, dose response, PAX8 project, cell-based, plate reader, dry powder samples (AID 743197)", "assay_type": "functional", "conditions": "OVCAR-8"}, "[28]": {"assay": "cytotoxicity dependent on PAX8, dose response, cell-based, plate reader, dry powder (AID 743049)", "assay_type": "functional"}, "[29]": {"assay": "inhibitors of HIV Env-driven cell fusion, dose response, cherry-pick (AID 652057)", "assay_type": "functional, cell-based"}, "[30]": {"assay": "ZM109 Env clade C HIV-1 fusion inhibitors, dose response, HeLa effector, CEM target cells, luciferase, cherry-pick (AID 652058)", "assay_type": "functional, cell-based"}, "[31]": {"assay": "off-target signal loss in HeLa-CEM21 co-culture – HeLa F-luc CTL cells, cherry-picked, counter-screen for HIV-1 Env fusion inhibitor project, dose response (AID 652040);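 further: potency for signal decrease marking cytotoxic or nonspecific inhibition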", "assay_type": "functional, cell-based"}, "[32]": {"assay": "inhibitors of clade B AD8 Env fusion, dose response, cell-based, cherry-pick (AID 652062);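 further: potency is for inhibitors of fusion seen as a drop in luminescence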", "assay_type": "functional"}, "[33]": {"assay": "HIV Env cell-cell fusion inhibitors, dose response, HIV entry, plate reader, dry powder (AID 687023)", "assay_type": "functional, cell-based"}, "[34]": {"assay": "CEM21 cell cytotoxicity, dose response, cytotoxicity control, plate reader, dry powder (AID 687026)", "assay_type": "functional, cell-based"}}, "note": "The source made the active and inactive calls.", "data": [{"smiles": "CC#CC#Cc1cccc(=O)o1", "values": [{"measurement": "IC50", "setting": "[1]", "value": "16.5 µM (active)"}, {"measurement": "EC50", "setting": "[2]", "value": "> 91 µM (inactive)"}, {"measurement": "EC50", "setting": "[3]", "value": "> 91 µM (inactive)"}, {"measurement": "AC50", "setting": "[4]", "value": "9.68 µM (active)"}, {"measurement": "IC50", "setting": "[5]", "value": "44.4 µM (active)"}]}, {"smiles": "O=C1C(Nc2ccc(Cl)cc2)=C(N2CCCC2)C(=O)c2ccccc21", "values": [{"measurement": "AC50", "setting": "[6]", "value": "31.6 µM (active)"}, {"measurement": "AC50", "setting": "[7]", "value": "39.2 µM (active)"}, {"measurement": "AC50", "setting": "[8]", "value": "> 70 µM (inactive)"}, {"measurement": "AC50", "setting": "[9]", "value": "39.2 µM (active)"}, {"measurement": "AC50", "setting": "[10]", "value": "1.77 µM (active)"}, {"measurement": "AC50", "setting": "[11]", "value": "41.5 µM (active)"}, {"measurement": "AC50", "setting": "[12]", "value": "50.9 µM (active)"}, {"measurement": "AC50", "setting": "[13]", "value": "3.48 µM (active)"}]}, {"smiles": "Cc1c(C(=O)Nc2ccccn2)oc2ccccc12", "values": [{"measurement": "EC50", "setting": "[14]", "value": "0.901 µM (active)"}, {"measurement": "IC50", "setting": "[15]", "value": "> 67.5 µM (inactive)"}, {"measurement": "EC50", "setting": "[16]", "value": "> 67.5 µM (inactive)"}]}, {"smiles": "Cc1nn(-c2ccccn2)c2nc(-c3cccs3)cc(C(=O)N3CCOCC3)c12", "values": [{"measurement": "EC50", "setting": "[17]", "value": "> 69.5 µM (inactive)"}]}, {"smiles": "C=CC#CC[N+]1(CC#Cc2ccccc2)CCOCC1", "values": [{"measurement": "IC50", "setting": "[18]", "value": "124 µM (active)"}, {"measurement": "IC50", "setting": "[19]", "value": "5.56 µM (active)"}, {"measurement": "IC50", "setting": "[20]", "value": "11.8 µM (active)"}]}, {"smiles": "O=C(C[C@H]1CC[C@H]2[C@@H](COC[C@@H](O)CN2S(=O)(=O)c2cccc(Cl)c2)O1)Nc1ccc(-c2ccccc2)cc1", "values": [{"measurement": "AC50", "setting": "[21]", "value": "8.28 µM (active)"}, {"measurement": "AC50", "setting": "[22]", "value": "8.55 µM (active)"}, {"measurement": "AC50", "setting": "[23]", "value": "43 µM (active)"}, {"measurement": "AC50", "setting": "[24]", "value": "3.85 µM (active)"}, {"measurement": "AC50", "setting": "[25]", "value": "31.2 µM (active)"}, {"measurement": "AC50", "setting": "[26]", "value": "37.9 µM (active)"}, {"measurement": "AC50", "setting": "[27]", "value": "27.7 µM (active)"}, {"measurement": "AC50", "setting": "[28]", "value": "20.3 µM (active)"}]}, {"smiles": "O=C(Nc1ccc2c(c1)CCC2)C1CCN(c2c3c(nc4ncnn24)CCC3)CC1", "values": [{"measurement": "AC50", "setting": "[29]", "value": "9.44 µM (active)"}, {"measurement": "AC50", "setting": "[30]", "value": "1.4 µM (active)"}, {"measurement": "AC50", "setting": "[31]", "value": "41.2 µM (active)"}, {"measurement": "AC50", "setting": "[32]", "value": "3.88 µM (active)"}, {"measurement": "AC50", "setting": "[33]", "value": "5.08 µM (active)"}, {"measurement": "AC50", "setting": "[34]", "value": "> 70 µM (inactive)"}]}]}
